Consider one molecule from US11572590B2, “Methods for evaluating tumor cell spheroids using 3D microfluidic cell culture device” (Dana-Farber Cancer Institute, Inc., priority 2017, dated 2023).

Read-outs that look alike come from different tables or passages of the source.

Assay in all cases: SelectScreen Kinase Profiling, single point inhibition and IC50 for off-target kinases
Holding throughout (assay type): biochemical

The target of assay [1] is T1, off-target kinases (Homo sapiens, UniProt Q9UBE8).
T1 sequence (Q9UBE8 1-527): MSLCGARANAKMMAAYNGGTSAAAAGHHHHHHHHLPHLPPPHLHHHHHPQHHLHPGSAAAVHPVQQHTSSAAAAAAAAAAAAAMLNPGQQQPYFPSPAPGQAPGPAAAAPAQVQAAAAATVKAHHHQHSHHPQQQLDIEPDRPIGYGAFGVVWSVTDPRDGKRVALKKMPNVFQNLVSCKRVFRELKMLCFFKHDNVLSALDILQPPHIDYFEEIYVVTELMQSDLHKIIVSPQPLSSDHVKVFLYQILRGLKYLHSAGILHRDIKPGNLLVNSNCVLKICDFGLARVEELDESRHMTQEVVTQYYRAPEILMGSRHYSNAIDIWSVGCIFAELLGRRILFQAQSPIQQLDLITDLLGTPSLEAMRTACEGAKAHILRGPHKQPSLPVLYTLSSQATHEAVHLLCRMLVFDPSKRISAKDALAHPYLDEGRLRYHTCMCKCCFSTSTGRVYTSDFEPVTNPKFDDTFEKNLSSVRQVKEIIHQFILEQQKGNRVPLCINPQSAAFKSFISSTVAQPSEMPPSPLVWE
The conditions noted are these: NLK, LanthaScreen Binding.

In assay [2] the target is off-target kinases (Homo sapiens, UniProt P07949, V804M). The conditions noted are these: RET V804M, mutant y, LanthaScreen Binding.
The target of assay [3] is off-target kinases (Homo sapiens, UniProt Q9UM73, R1275Q). The conditions noted are these: ALK R1275Q (mutant), LanthaScreen Binding.
Sequence of off-target kinases (Homo sapiens, UniProt Q9UM73, R1275Q) (Q9UM73 19-1620 R1275Q): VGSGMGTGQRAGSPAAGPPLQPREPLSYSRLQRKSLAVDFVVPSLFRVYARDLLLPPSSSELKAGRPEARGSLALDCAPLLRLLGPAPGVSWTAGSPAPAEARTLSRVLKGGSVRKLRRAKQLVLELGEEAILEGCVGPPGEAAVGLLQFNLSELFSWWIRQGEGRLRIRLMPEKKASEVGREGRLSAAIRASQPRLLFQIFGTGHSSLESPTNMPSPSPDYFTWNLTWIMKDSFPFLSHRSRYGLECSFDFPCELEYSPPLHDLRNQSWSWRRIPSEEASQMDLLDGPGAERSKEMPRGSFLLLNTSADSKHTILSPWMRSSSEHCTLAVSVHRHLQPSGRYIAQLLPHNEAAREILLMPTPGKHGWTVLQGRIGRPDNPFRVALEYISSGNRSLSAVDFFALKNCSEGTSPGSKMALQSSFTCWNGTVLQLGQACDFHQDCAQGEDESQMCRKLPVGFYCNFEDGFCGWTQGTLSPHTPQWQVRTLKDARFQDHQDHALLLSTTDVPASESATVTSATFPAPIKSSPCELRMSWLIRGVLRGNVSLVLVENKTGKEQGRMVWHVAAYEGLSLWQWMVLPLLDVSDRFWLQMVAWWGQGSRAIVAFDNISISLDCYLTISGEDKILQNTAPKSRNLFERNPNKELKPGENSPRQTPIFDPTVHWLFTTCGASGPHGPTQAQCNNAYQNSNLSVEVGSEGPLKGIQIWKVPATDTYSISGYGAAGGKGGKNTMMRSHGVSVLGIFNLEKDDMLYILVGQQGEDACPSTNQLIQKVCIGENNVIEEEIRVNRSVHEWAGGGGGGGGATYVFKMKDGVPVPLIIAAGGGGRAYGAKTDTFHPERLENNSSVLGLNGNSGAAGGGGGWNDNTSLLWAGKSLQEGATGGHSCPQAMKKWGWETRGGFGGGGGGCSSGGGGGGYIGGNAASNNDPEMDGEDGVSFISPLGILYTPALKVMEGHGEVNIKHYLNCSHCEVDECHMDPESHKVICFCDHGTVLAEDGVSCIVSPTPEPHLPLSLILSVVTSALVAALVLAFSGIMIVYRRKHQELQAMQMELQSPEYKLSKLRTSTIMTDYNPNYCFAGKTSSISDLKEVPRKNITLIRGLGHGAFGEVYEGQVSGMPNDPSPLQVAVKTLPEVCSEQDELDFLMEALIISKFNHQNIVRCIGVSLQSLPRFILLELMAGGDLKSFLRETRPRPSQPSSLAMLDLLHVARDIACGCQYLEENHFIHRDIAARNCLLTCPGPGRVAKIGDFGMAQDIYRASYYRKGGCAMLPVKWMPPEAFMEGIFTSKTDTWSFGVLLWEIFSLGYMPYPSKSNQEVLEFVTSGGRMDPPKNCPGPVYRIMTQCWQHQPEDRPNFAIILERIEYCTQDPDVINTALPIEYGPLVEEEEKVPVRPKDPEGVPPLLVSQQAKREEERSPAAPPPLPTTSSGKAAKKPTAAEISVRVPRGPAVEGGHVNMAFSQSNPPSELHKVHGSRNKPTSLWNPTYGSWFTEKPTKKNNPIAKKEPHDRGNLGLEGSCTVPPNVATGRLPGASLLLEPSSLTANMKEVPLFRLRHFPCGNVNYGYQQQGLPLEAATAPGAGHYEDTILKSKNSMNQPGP
The target in assay [4] is T2, off-target kinases (Homo sapiens, UniProt P52564, S207E/T211E).
T2 sequence (P52564 1-334 S207E/T211E): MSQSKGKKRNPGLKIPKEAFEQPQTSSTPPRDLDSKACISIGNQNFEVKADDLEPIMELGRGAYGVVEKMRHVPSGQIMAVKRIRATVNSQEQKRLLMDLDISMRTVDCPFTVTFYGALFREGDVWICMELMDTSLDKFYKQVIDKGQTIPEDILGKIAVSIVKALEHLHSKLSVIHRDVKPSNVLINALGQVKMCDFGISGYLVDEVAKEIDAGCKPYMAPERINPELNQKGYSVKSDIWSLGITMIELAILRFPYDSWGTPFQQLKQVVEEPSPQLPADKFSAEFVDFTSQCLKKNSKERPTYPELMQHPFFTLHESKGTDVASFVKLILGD
The conditions noted are these: MAP2K6 (MKK6) S207E T211E (mutant), LanthaScreen Binding.

Assay [5] has as its target off-target kinases (Homo sapiens, UniProt Q9P1W9). The conditions noted are these: PIM2, ZLYTE, ATP Km app.
In assay [6] the target is T3, off-target kinases (Homo sapiens, UniProt Q9UQB9).
T3 sequence (Q9UQB9 1-309): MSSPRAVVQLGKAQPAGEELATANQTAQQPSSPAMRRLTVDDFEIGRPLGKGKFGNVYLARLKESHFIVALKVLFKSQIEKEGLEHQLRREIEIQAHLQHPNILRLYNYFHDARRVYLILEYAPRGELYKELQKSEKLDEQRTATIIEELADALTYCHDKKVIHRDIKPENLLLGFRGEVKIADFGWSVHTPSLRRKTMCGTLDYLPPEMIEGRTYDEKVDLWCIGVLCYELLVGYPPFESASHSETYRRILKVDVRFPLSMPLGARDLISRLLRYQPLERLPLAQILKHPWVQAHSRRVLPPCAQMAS
The conditions noted are these: AURKC (Aurora C), ZLYTE, ATP Km app.

Assay [7] deals with off-target kinases (Homo sapiens, UniProt P08922). The conditions noted are these: ROS1, ZLYTE, ATP Km app.
Sequence of off-target kinases (Homo sapiens, UniProt P08922) (P08922 28-2347): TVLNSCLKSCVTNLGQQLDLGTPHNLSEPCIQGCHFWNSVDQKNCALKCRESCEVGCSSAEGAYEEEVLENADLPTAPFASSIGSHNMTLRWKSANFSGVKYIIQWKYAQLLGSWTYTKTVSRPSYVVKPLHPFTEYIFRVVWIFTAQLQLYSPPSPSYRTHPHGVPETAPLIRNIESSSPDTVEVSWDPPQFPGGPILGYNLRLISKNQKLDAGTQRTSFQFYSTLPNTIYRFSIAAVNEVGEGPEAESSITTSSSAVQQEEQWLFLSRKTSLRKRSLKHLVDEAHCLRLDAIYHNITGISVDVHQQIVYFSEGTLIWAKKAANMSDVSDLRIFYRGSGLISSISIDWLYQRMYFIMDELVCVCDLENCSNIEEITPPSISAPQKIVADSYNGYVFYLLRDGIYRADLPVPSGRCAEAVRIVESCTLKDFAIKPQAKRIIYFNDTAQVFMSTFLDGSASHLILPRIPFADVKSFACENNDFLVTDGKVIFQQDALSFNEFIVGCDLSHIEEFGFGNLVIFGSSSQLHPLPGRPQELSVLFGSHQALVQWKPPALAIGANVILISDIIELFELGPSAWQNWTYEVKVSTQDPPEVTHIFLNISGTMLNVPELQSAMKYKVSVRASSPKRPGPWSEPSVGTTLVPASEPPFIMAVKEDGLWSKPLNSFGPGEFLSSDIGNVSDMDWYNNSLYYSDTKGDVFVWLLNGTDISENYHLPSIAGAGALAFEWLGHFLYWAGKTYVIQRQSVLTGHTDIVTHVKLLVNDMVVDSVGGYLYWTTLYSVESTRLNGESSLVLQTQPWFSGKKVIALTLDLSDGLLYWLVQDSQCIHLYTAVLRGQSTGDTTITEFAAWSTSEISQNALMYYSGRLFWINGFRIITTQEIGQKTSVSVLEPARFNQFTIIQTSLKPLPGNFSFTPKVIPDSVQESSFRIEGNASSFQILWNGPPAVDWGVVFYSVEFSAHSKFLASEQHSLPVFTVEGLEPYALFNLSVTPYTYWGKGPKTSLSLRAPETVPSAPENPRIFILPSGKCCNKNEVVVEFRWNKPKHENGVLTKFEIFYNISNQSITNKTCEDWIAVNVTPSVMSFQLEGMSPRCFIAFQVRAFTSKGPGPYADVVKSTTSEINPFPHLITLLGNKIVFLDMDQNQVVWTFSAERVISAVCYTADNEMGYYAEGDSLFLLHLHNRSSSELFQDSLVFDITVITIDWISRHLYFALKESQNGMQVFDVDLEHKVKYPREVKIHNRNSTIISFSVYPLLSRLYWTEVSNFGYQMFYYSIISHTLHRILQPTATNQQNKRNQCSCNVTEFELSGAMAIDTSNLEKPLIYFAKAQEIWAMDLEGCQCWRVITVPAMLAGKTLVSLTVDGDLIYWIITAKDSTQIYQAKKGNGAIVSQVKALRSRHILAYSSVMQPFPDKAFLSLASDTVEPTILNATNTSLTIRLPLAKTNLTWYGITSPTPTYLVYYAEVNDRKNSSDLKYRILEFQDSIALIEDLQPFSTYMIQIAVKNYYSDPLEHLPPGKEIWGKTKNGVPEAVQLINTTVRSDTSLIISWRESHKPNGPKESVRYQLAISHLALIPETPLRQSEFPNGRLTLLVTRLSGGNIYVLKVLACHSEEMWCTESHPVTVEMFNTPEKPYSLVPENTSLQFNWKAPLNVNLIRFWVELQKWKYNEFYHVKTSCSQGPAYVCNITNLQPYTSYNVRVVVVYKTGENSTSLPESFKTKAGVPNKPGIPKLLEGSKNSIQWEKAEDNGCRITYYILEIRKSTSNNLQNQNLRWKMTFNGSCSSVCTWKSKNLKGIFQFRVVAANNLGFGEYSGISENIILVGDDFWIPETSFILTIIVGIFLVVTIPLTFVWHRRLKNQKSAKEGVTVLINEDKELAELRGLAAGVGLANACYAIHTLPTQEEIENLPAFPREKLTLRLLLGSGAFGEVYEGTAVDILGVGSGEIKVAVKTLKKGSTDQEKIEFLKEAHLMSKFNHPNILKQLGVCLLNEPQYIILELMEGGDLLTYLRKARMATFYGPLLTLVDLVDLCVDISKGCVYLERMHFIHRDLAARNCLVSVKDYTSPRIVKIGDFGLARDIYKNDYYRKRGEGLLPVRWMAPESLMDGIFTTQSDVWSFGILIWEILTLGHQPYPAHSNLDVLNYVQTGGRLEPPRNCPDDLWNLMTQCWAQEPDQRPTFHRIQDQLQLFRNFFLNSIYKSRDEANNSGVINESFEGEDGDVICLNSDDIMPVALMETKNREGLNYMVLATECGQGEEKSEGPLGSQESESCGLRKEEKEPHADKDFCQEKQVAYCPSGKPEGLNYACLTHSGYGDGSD

Sequence of off-target kinases (Homo sapiens, UniProt Q9P1W9) (Q9P1W9 whole entry): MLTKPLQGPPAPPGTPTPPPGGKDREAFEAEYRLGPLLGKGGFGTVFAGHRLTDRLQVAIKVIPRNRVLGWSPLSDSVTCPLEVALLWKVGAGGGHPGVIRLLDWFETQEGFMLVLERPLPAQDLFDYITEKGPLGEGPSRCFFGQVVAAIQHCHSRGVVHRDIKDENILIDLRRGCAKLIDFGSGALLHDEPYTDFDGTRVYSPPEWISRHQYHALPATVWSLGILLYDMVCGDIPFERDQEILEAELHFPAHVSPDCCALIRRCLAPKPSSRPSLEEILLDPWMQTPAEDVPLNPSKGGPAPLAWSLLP

With `N#Cc1cc(-c2ncnc(Nc3ccc(N4CCN(C5COC5)CC4)cc3)n2)ccc1OC1CCOCC1` [Compound 1, 5-(4-((4-(4-(oxetan-3-yl)piperazin-1-yl)phenyl)amino)-1,3,5-triazin-2-yl)-2-((tetrahydro-2H-pyran-4-yl)oxy)benzonitrile], the inhibition on off-target kinases [1] (read-out: % Inhibition 1) was determined as 26%; at off-target kinases [1] (read-out: % Inhibition 2), 29%; on off-target kinases [1] (read-out: % Inhibition Avg) it was 28%; at off-target kinases [2] (read-out: % Inhibition 1) it was 35%; on off-target kinases [2] (read-out: % Inhibition 2) it was 31%; at off-target kinases [2] (read-out: % Inhibition Avg), 33%. The inhibition at off-target kinases [3] (read-out: % Inhibition 1) was 0%; at off-target kinases [3] (read-out: % Inhibition 2) it was 7%; on off-target kinases [3] (read-out: % Inhibition Avg), 4%; on off-target kinases [4] (read-out: % Inhibition 1) it was 5%; on off-target kinases [4] (read-out: % Inhibition 2), 5%; at off-target kinases [4] (read-out: % Inhibition Avg) it was 5%. Moreover, the inhibition on off-target kinases [5] (read-out: % Inhibition 1) is -1%; at off-target kinases [5] (read-out: % Inhibition 2), 7%; on off-target kinases [5] (read-out: % Inhibition Avg), 3%; on off-target kinases [6] (read-out: % Inhibition 1), 23%; at off-target kinases [6] (read-out: % Inhibition 2), 23%; on off-target kinases [6] (read-out: % Inhibition Avg), 23%. For the same molecule, the values for the inhibition at off-target kinases [7] (read-out: % Inhibition 1), on off-target kinases [7] (read-out: % Inhibition 2) and on off-target kinases [7] (read-out: % Inhibition Avg) were 30%, 26% and 28%, respectively.
